Assay results reported in PubChem BioAssay AID2060617 (Molecular Pharmacology Branch, DTP, NCI, 2025).

System: 485368-065-R4-J2-PDC spheroids with HUVEC/MSC, viability
Test: Anticancer human tumor 485368-065-R4-J2-PDC patient-derived pancreatic carcinoma cell line growth inhibition [CLK]
Conditions: for IC50: curve of first compound; for viability, T/C: stronger effect = lower value
How it was run: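 Multi-cell-type spheroids combined patient-derived tumor cells with HUVEC endothelial cells and human mesenchymal stem cells. Paired agents were dosed in half-log steps down from about clinical Cmax, or from 10 microM where Cmax was unknown.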

[1] = second compound 0.0316 µM, first compound 0.0316 µM
[2] = second compound 0.0316 µM, first compound 0.1 µM
[3] = second compound 0.0316 µM, first compound 0.316 µM
[4] = second compound 0.0316 µM, first compound 1 µM
[5] = second compound 0.0316 µM, first compound 3.16 µM
[6] = second compound 0.0316 µM, first compound 10 µM
[7] = second compound 0.1 µM, first compound 0.0316 µM
[8] = second compound 0.1 µM, first compound 0.1 µM
[9] = second compound 0.1 µM, first compound 0.316 µM
[10] = second compound 0.1 µM, first compound 1 µM
[11] = second compound 0.1 µM, first compound 3.16 µM
[12] = second compound 0.1 µM, first compound 10 µM
[13] = second compound 0.316 µM, first compound 0.0316 µM
[14] = second compound 0.316 µM, first compound 0.1 µM
[15] = second compound 0.316 µM, first compound 0.316 µM
[16] = second compound 0.316 µM, first compound 1 µM
[17] = second compound 0.316 µM, first compound 3.16 µM
[18] = second compound 0.316 µM, first compound 10 µM
[19] = second compound 1 µM, first compound 0.0316 µM
[20] = second compound 1 µM, first compound 0.1 µM
[21] = second compound 1 µM, first compound 0.316 µM
[22] = second compound 1 µM, first compound 1 µM
[23] = second compound 1 µM, first compound 3.16 µM
[24] = second compound 1 µM, first compound 10 µM
[25] = second compound 3.16 µM, first compound 0.0316 µM
[26] = second compound 3.16 µM, first compound 0.1 µM
[27] = second compound 3.16 µM, first compound 0.316 µM
[28] = second compound 3.16 µM, first compound 1 µM
[29] = second compound 3.16 µM, first compound 3.16 µM
[30] = second compound 3.16 µM, first compound 10 µM
[31] = second compound 10 µM, first compound 0.0316 µM
[32] = second compound 10 µM, first compound 0.1 µM
[33] = second compound 10 µM, first compound 0.316 µM
[34] = second compound 10 µM, first compound 1 µM
[35] = second compound 10 µM, first compound 3.16 µM
[36] = second compound 10 µM, first compound 10 µM
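Further: spheroids exposed to compounds for seven days.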
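Wherever viability, T/C is given: 100% = DMSO vehicle control wells.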

In the case of `CC1(C)CCC(CN2CCN(c3ccc(C(=O)NS(=O)(=O)c4ccc(NCC5CCOCC5)c([N+](=O)[O-])c4)c(Oc4cnc5[nH]ccc5c4)c3)CC2)=C(c2ccc(Cl)cc2)C1` + CNC(=O)c1ccc(Nc2nc(OC3CCCC3)c3c(-c4ccc5nc(C)oc5c4)c[nH]c3n2)c(OC)c1, the IC50 (second compound 0.0316 µM) is reported as 7.11 µM, the IC50 (second compound 0.1 µM) is reported as 7.32 µM and the IC50 (second compound 0.316 µM) is reported as 6.86 µM. For the same molecule, the IC50 (second compound 1 µM) was 6.75 µM, the IC50 (second compound 3.16 µM) was 6.51 µM and the IC50 (second compound 10 µM) was 6.43 µM. The viability, T/C [1] was 101%, the viability, T/C [2] was 95.1% and the viability, T/C [3] was 85.5%. For the same molecule, the viability, T/C [4] was 102%, the viability, T/C [5] was 117% and the viability, T/C [6] was 28.9%. For the same molecule, the viability, T/C [7] was 98.2%, the viability, T/C [8] was 97.6% and the viability, T/C [9] was 98.3%. The viability, T/C [10] was 105%, the viability, T/C [11] was 107% and the viability, T/C [12] was 30.8%. It also gave a viability, T/C [13] of 86.7%, a viability, T/C [14] of 89.8% and a viability, T/C [15] of 93.4%. The viability, T/C [16] was 89.5%, the viability, T/C [17] was 97.1% and the viability, T/C [18] was 29.9%. For the same molecule, the viability, T/C [19] was 74.6%, the viability, T/C [20] was 76% and the viability, T/C [21] was 80.7%. The viability, T/C [22] was 87.2%, the viability, T/C [23] was 98.7% and the viability, T/C [24] was 32.6%. For the same molecule, the viability, T/C [25] was 74%, the viability, T/C [26] was 73.9% and the viability, T/C [27] was 74%. The viability, T/C [28] was 73.5%, the viability, T/C [29] was 93.5% and the viability, T/C [30] was 33.5%. The viability, T/C [31] was 72.6%, the viability, T/C [32] was 72% and the viability, T/C [33] was 62.2%. It also gave a viability, T/C [34] of 72.6%, a viability, T/C [35] of 90.8% and a viability, T/C [36] of 35.2%.
Molecule `CC1COCCN1c1cc(C2(S(C)(=N)=O)CC2)nc(-c2ccnc3[nH]ccc23)n1` (centres undefined) + CNC(=O)c1ccc(Nc2nc(OC3CCCC3)c3c(-c4ccc5nc(C)oc5c4)c[nH]c3n2)c(OC)c1 has an IC50 (second compound 0.0316 µM) of over 10 µM, an IC50 (second compound 0.1 µM) of over 10 µM and an IC50 (second compound 0.316 µM) of over 10 µM. The IC50 (second compound 1 µM) was over 10 µM, the IC50 (second compound 3.16 µM) was over 10 µM and the IC50 (second compound 10 µM) was over 10 µM. It also gave a viability, T/C [1] of 82.7%, a viability, T/C [2] of 96% and a viability, T/C [3] of 102%. The viability, T/C [4] was 101%, the viability, T/C [5] was 99.2% and the viability, T/C [6] was 107%. It also gave a viability, T/C [7] of 91.1%, a viability, T/C [8] of 95.1% and a viability, T/C [9] of 101%. It also gave a viability, T/C [10] of 97.6%, a viability, T/C [11] of 102% and a viability, T/C [12] of 97.4%. For the same molecule, the viability, T/C [13] was 84.7%, the viability, T/C [14] was 85% and the viability, T/C [15] was 75.9%. It also gave a viability, T/C [16] of 89.7%, a viability, T/C [17] of 90.3% and a viability, T/C [18] of 82%. The viability, T/C [19] was 80.3%, the viability, T/C [20] was 78% and the viability, T/C [21] was 72.6%. It also gave a viability, T/C [22] of 81.2%, a viability, T/C [23] of 90.1% and a viability, T/C [24] of 73.4%. It also gave a viability, T/C [25] of 76.3%, a viability, T/C [26] of 78.2% and a viability, T/C [27] of 68%. It also gave a viability, T/C [28] of 72.7%, a viability, T/C [29] of 68.7% and a viability, T/C [30] of 54.1%. The viability, T/C [31] was 74%, the viability, T/C [32] was 70.6% and the viability, T/C [33] was 62.2%. For the same molecule, the viability, T/C [34] was 71.6%, the viability, T/C [35] was 69% and the viability, T/C [36] was 59.6%.
